{"source": "patent US11083195B2", "about": "“Insecticidal compositions and methods to kill insects” (priority 2019, dated 2021)", "key": {"Drosophila suzukii [1]": {"system": "Drosophila suzukii", "assay": "Fly mortality in the cage experiment", "format": "in vivo", "details": "7 days (FIG. 7)", "experimental": "Materials and Methods. Flies and sugars: Drosophila suzukii used in these experiments were from a colony maintained at 22±5° C. under a photoperiod of L:D 16:8 h, and a relative humidity of 60±5% RH at the Horticultural Crops Research Unit, USDA ARS in Corvallis, Oreg. Wildtype flies collected from infested fruits in Corvallis, Oreg. were used to start the colony. Standard rearing methods and diet are described by Woltz, J. M., et al., Journal of Applied Entomology, 139:759-770 (2015). Newly emerged adult males and females were collected daily and maintained in cages with water and diet until they were specific ages for experimentation. […] Effect of erythritol formulations with sucrose or sucralose on fly mortality in the cage experiment: Two combinations of erythritol (Ery) mixed with sucrose (Suc) or sucralose (Sul) were introduced to ten flies in a cage (25 cm wide×25 cm deep×28 cm height) for 7 days (FIG. 6). […] The cage experiment shared similar results with both the vial and cup experiments (FIG. 2, FIG. 5, FIG. 7). In summary, the erythritol/sucralose formulation will not affect human health. The erythritol/sucralose formulation can be directly applied as an insecticide for insects such as Drosophila suzukii. […] The formulations can be used as a phagostimulant with conventional or biological insecticides. […]"}, "Drosophila suzukii [2]": {"system": "Drosophila suzukii", "format": "in vivo", "details": "vial; for Statistical comparison of mortalities in words: second experiment, 7 days, log-rank pairwise comparisons (FIG. 3); for Mortality (%) of flies when fed different sugar formulations: Table 1, first experiment; for Mortality (%) of flies when fed different erythritol and sucralose formulations: Table 2, second experiment", "experimental": "Materials and Methods. Flies and sugars: Drosophila suzukii used in these experiments were from a colony maintained at 22±5° C. under a photoperiod of L:D 16:8 h, and a relative humidity of 60±5% RH at the Horticultural Crops Research Unit, USDA ARS in Corvallis, Oreg. Wildtype flies collected from infested fruits in Corvallis, Oreg. were used to start the colony. Standard rearing methods and diet are described by Woltz, J. M., et al., Journal of Applied Entomology, 139:759-770 (2015). Newly emerged adult males and females were collected daily and maintained in cages with water and diet until they were specific ages for experimentation. Sugars used in this study, meso-erythritol (>99%), sucrose (>99%), and sucralose (>99%), were purchased from Fisher Scientific (Hampton, N.H.).\nDifferent sugar formulations on the fly survivorship: Ten 5-day old flies (5 males and 5 females) were introduced into a plastic vial and given a tube (1.5 ml) containing different water-based solutions. Two combinations of erythritol (Ery) mixed with sucrose (Suc) or sucralose (Sul) were introduced to flies in a plastic vial for 7 days (FIG. 1). For the first experiment various pairs were tested (Table 1): Suc 0.5 M, Ery 0.5 M, Ery 1.5 M+Suc 0.5 M, and Ery 1.5 M+Suc 0.1 M. For the second experiment various pairs were tested (Table 2): Suc 0.5 M, Ery 0.5 M, Sul 0.5 M, Sul 0.1 M, Ery 1.5 M+Sul 0.5 M, Ery 1.5 M+Sul 0.1 M, Ery 2.0 M+Sul 0.1 M, and Ery 2.0 M+Sul 0.01 M. Survivorship of flies was checked daily for 7 days. Each pair per experiment was replicated at least three times."}}, "note": "Where two headings read alike, the source gives them in different places."}
{"smiles": "OC[C@@H](O)[C@@H](O)CO", "note": "[Erythritol (Ery) 0.5M, meso-erythritol]", "values": [{"measurement": "Statistical comparison of results in words", "setting": "Drosophila suzukii [1]", "result": "statistically similar"}, {"measurement": "Statistical comparison of mortalities in words", "setting": "Drosophila suzukii [2]", "result": "statistically the same values"}]}
{"smiles": "OC[C@H]1O[C@H](O[C@]2(CCl)O[C@H](CCl)[C@@H](O)[C@@H]2O)[C@H](O)[C@@H](O)[C@H]1Cl", "note": "[Sul 0.1M, sucralose]", "values": [{"measurement": "Statistical comparison of mortalities in words", "setting": "Drosophila suzukii [2]", "result": "statistically the same effect"}]}
{"smiles": "OC[C@H]1O[C@@](CO)(O[C@H]2O[C@H](CO)[C@@H](O)[C@H](O)[C@H]2O)[C@@H](O)[C@@H]1O", "note": "[Sucrose (Suc) 0.5M, sucrose]", "values": [{"measurement": "Mortality (%) of flies when fed different sugar formulations", "setting": "Drosophila suzukii [2]; Day1", "result": 1.3, "unit": "%"}, {"measurement": "Mortality (%) of flies when fed different sugar formulations", "setting": "Drosophila suzukii [2]; Day2", "result": 1.3, "unit": "%"}, {"measurement": "Mortality (%) of flies when fed different sugar formulations", "setting": "Drosophila suzukii [2]; Day3", "result": 3.8, "unit": "%"}, {"measurement": "Mortality (%) of flies when fed different sugar formulations", "setting": "Drosophila suzukii [2]; Day4", "result": 5.0, "unit": "%"}, {"measurement": "Mortality (%) of flies when fed different sugar formulations", "setting": "Drosophila suzukii [2]; Day5", "result": 5.0, "unit": "%"}, {"measurement": "Mortality (%) of flies when fed different sugar formulations", "setting": "Drosophila suzukii [2]; Day6", "result": 6.3, "unit": "%"}, {"measurement": "Mortality (%) of flies when fed different sugar formulations", "setting": "Drosophila suzukii [2]; Day7", "result": 11.3, "unit": "%"}, {"measurement": "Mortality (%) of flies when fed different erythritol and sucralose formulations", "setting": "Drosophila suzukii [2]; Day 1", "result": 0.0, "unit": "%"}, {"measurement": "Mortality (%) of flies when fed different erythritol and sucralose formulations", "setting": "Drosophila suzukii [2]; Day 2", "result": 2.5, "unit": "%"}, {"measurement": "Mortality (%) of flies when fed different erythritol and sucralose formulations", "setting": "Drosophila suzukii [2]; Day 3", "result": 2.5, "unit": "%"}, {"measurement": "Mortality (%) of flies when fed different erythritol and sucralose formulations", "setting": "Drosophila suzukii [2]; Day 4", "result": 2.5, "unit": "%"}, {"measurement": "Mortality (%) of flies when fed different erythritol and sucralose formulations", "setting": "Drosophila suzukii [2]; Day 5", "result": 5.0, "unit": "%"}, {"measurement": "Mortality (%) of flies when fed different erythritol and sucralose formulations", "setting": "Drosophila suzukii [2]; Day 6", "result": 5.0, "unit": "%"}, {"measurement": "Mortality (%) of flies when fed different erythritol and sucralose formulations", "setting": "Drosophila suzukii [2]; Day 7", "result": 6.3, "unit": "%"}]}
{"smiles": "OC[C@H]1O[C@H](O[C@]2(CCl)O[C@H](CCl)[C@@H](O)[C@@H]2O)[C@H](O)[C@@H](O)[C@H]1Cl", "note": "[Sucralose (Sul) 0.5M, sucralose]", "values": [{"measurement": "Statistical comparison of mortalities in words", "setting": "Drosophila suzukii [2]", "result": "statistically the same effect"}]}
